Measured values from paper PMC7948503, “Optimization of a peptide ligand for the adhesion GPCR ADGRG2 provides a potent tool to explore receptor biology” (The Journal of Biological Chemistry, 2020).
Each block holds one compound with its values, some of them ahead of it. Non-standard residues stand in square brackets, D forms with d. Residues, ends and D or L forms follow the SMILES beside them. *: point of attachment. FITC = O=C1OC2(c3ccc(O)cc3Oc3cc(O)ccc32)c2ccc(NC(=S)*)cc21; Phe(4-Me) = Cc1ccc(C[C@H](N)C(=O)O)cc1

Key:
Rluc-ADGRG2-ΔGPS-β F828A = molecular target: T1, Rluc-ADGRG2-ΔGPS-β F828A (Mus musculus, UniProt Q8CJ12, F842A); experiment: BRET binding of FITC-VPM-p15; details: mutant F828A
T1 construct: expressed in transfected cells; host or cells: HEK293
Protocol: (§1) The binding capacities of ADGRG2 WT or its mutants for VPM-p15 were determined by BRET assay, which has been used in previous studies ([27], [28], [29]). We fused the N terminus of ADGRG2 with a Rluc fragment and coupled FITC to the C terminus of VPM-p15 to facilitate BRET measurement. We stimulated the HEK293 cells transfected with Rluc-ADGRG2-ΔGPS-β wildtype (WT) or mutants by increasing the concentration of FITC-conjugated VPM-p15, and their binding abilities were determined by fitting the data with the saturation curves.
(§2) In the detection of binding capacities of ADGRG2 WT or its mutants for VPM-p15, HEK293 cells were transfected with Rluc-ADGRG2-ΔGPS-β or mutants. Transfected cells were stimulated by increasing the concentration of FITC-conjugated VPM-p15. Binding capacities were determined by BRET, EC50 values of ADGRG2 WT and its mutants for binding VPM-p15 were calculated by GraphPad, and data were normalized by EC50 of WT.

Rluc-ADGRG2-ΔGPS-β F845A = molecular target: T2, Rluc-ADGRG2-ΔGPS-β F845A (Mus musculus, UniProt Q8CJ12, F859A); experiment: BRET binding of FITC-VPM-p15; details: mutant F845A
T2 construct: expressed in transfected cells; host or cells: HEK293
Protocol: as §1, §2

Rluc-ADGRG2-ΔGPS-β I663A = molecular target: T3, Rluc-ADGRG2-ΔGPS-β I663A (Mus musculus, UniProt Q8CJ12, I677A); experiment: BRET binding of FITC-VPM-p15; details: mutant I663A
T3 construct: the entire ECD (including the entire GPS motif) was removed (ADGRG2-ΔGPS-β); expressed in transfected cells; host or cells: HEK293
Protocol: as §1, §2

Rluc-ADGRG2-ΔGPS-β V834A = molecular target: T4, Rluc-ADGRG2-ΔGPS-β V834A (Mus musculus, UniProt Q8CJ12, V848A); experiment: BRET binding of FITC-VPM-p15; details: mutant V834A
T4 construct: expressed in transfected cells; host or cells: HEK293
Protocol: as §1, §2

Rluc-ADGRG2-ΔGPS-β F829A = molecular target: T5, Rluc-ADGRG2-ΔGPS-β F829A (Mus musculus, UniProt Q8CJ12, F843A); experiment: BRET binding of FITC-VPM-p15; details: mutant F829A
T5 construct: expressed in transfected cells; host or cells: HEK293
Protocol: as §1, §2

Rluc-ADGRG2-ΔGPS-β F671A = molecular target: T6, Rluc-ADGRG2-ΔGPS-β F671A (Mus musculus, UniProt Q8CJ12, F685A); experiment: BRET binding of FITC-VPM-p15; details: mutant F671A
T6 construct: the entire ECD (including the entire GPS motif) was removed (ADGRG2-ΔGPS-β); expressed in transfected cells; host or cells: HEK293
Protocol: as §1, §2

Rluc-ADGRG2-ΔGPS-β I758A = experiment: BRET binding of FITC-VPM-p15; set-up: species or system mouse; details: HEK293, BRET saturation binding, repeated 6 times
Protocol: as §1, §2

Rluc-ADGRG2-ΔGPS-β W824A = experiment: BRET binding of FITC-VPM-p15; set-up: species or system mouse; details: HEK293, BRET saturation binding, repeated 6 times
Protocol: as §1, §2

Rluc-ADGRG2-ΔGPS-β W757A = experiment: BRET binding of FITC-VPM-p15; set-up: species or system mouse; details: HEK293, BRET saturation binding, repeated 6 times
Protocol: as §1, §2

ADGRG2-ΔGPS-β I758A = molecular target: T7, ADGRG2-ΔGPS-β I758A (Mus musculus, UniProt Q8CJ12, I772A); experiment: GloSensor cAMP assay; type: cell-based; details: mutant I758A; HEK293, cAMP Glosensor
T7 construct: expressed in transfected cells; host or cells: HEK293
Description: (§3) Wildtype ADGRG2 full-length (ADGRG2-FL) was cloned from mouse total cDNA libraries using the following primers: forward, […]; reverse, […], and then ADGRG2-FL, ADGRG2 C-terminal truncation mutant (ADGRG2-β), and ADGRG2-ΔGPS-β (the entire ECD of ADGRG2 was deleted) were subcloned into the pcDNA3.1 expression vector. The ADGRG2-ΔGPS-β mutants (T610A, Y611A, C614A, S661A, W662A, I663A, L665A, Y666A，N667A, F671A, L679A, L683A, I730A, V731A, F741A, F747A, W757A, I758A, N759A, S760A, V762A, F764A, Y765A, V768A, V769A, F772A, V774A, W824A, F826A, F828A, F829A, V834A, V836A, F838A, M839A, I844A, F845A) were generated using a QuikChange Mutagenesis Kit (Stratagene). All mutations were verified by DNA sequencing.
(§4) The Glosensor cAMP assay was performed as described ([6], [39], [40]). HEK293 cells were transfected with the GloSensor plasmid and the desired expression plasmids in 24-well dishes. Twenty-four hours after transfection, the cells were plated on 96-well plates at a cell density of 20,000 cells/well. The cells were maintained in Dulbecco’s modified Eagle’s medium for another 24 h, washed with PBS, and then incubated with 100 μl of solution containing 10% fetal bovine serum, 2% (v/v) GloSensor cAMP reagent, and 88% CO2-independent medium in each well for 2 h. The cAMP signal was examined using a luminescence counter (Mithras LB 940).

ADGRG2-ΔGPS-β W824A = molecular target: T8, ADGRG2-ΔGPS-β W824A (Mus musculus, UniProt Q8CJ12, W838A); experiment: GloSensor cAMP assay; type: cell-based; details: mutant W824A; HEK293, cAMP Glosensor
T8 construct: expressed in transfected cells; host or cells: HEK293
Description: as §3, §4

ADGRG2-ΔGPS-β F828A = molecular target: T9, ADGRG2-ΔGPS-β F828A (Mus musculus, UniProt Q8CJ12, F842A); experiment: GloSensor cAMP assay; type: cell-based; details: mutant F828A; HEK293, cAMP Glosensor
T9 construct: expressed in transfected cells; host or cells: HEK293
Description: as §3, §4

ADGRG2-ΔGPS-β F772A = molecular target: T10, ADGRG2-ΔGPS-β F772A (Mus musculus, UniProt Q8CJ12, F786A); experiment: GloSensor cAMP assay; type: cell-based; details: mutant F772A; HEK293, cAMP Glosensor
T10 construct: expressed in transfected cells; host or cells: HEK293
Description: as §3, §4

ADGRG2-ΔGPS-β I730A = molecular target: T11, ADGRG2-ΔGPS-β I730A (Mus musculus, UniProt Q8CJ12, I744A); experiment: GloSensor cAMP assay; type: cell-based; details: mutant I730A; HEK293, cAMP Glosensor
T11 construct: expressed in transfected cells; host or cells: HEK293
Description: as §3, §4

ADGRG2-ΔGPS-β S661A = molecular target: T12, ADGRG2-ΔGPS-β S661A (Mus musculus, UniProt Q8CJ12, S675A); experiment: GloSensor cAMP assay; type: cell-based; details: mutant S661A; HEK293, cAMP Glosensor
T12 construct: expressed in transfected cells; host or cells: HEK293
Description: as §3, §4

ADGRG2-ΔGPS-β V774A = molecular target: T13, ADGRG2-ΔGPS-β V774A (Mus musculus, UniProt Q8CJ12, V788A); experiment: GloSensor cAMP assay; type: cell-based; details: mutant V774A; HEK293, cAMP Glosensor
T13 construct: expressed in transfected cells; host or cells: HEK293
Description: as §3, §4

[1] = Kd(mutated ADGRG2-ΔGPS-β)/Kd(WT)

T2 sequence (Q8CJ12 614-1009 F859A): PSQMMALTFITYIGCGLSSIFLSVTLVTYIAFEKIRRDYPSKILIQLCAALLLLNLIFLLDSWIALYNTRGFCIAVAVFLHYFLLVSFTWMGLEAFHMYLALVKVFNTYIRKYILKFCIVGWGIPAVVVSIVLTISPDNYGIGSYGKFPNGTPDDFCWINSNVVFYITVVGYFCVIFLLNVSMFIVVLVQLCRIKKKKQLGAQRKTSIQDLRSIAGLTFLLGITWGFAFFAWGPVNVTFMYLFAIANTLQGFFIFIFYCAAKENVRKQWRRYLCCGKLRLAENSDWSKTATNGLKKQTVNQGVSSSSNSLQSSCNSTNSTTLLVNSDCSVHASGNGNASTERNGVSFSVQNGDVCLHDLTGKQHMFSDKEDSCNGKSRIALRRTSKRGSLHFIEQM
T4 sequence (Q8CJ12 614-1009 V848A): as the sequence (Q8CJ12 614-1009 F859A) above, with V235A, A246F counted along it
T6 sequence (Q8CJ12 618-1009 F685A limits assumed): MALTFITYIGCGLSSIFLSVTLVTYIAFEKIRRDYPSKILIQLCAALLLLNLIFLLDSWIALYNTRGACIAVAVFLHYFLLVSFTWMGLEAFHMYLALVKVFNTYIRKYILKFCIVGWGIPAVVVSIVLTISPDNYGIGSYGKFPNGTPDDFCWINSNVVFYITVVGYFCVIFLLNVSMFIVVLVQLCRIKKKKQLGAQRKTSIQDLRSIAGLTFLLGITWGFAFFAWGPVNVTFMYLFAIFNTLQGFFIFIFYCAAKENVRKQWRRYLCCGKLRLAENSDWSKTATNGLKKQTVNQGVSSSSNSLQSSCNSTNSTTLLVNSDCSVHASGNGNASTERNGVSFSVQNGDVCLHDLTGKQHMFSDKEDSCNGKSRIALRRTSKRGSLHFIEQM
T1 sequence (Q8CJ12 614-1009 F842A): as the sequence (Q8CJ12 614-1009 F859A) above, with F229A, A246F counted along it
T3 sequence (Q8CJ12 618-1009 I677A limits assumed): as the sequence (Q8CJ12 618-1009 F685A limits assumed) above, with I60A, A68F counted along it
T5 sequence (Q8CJ12 614-1009 F843A): as the sequence (Q8CJ12 614-1009 F859A) above, with F230A, A246F counted along it
T12 sequence (Q8CJ12 614-1009 S675A): as the sequence (Q8CJ12 614-1009 F859A) above, with S62A, A246F counted along it
T11 sequence (Q8CJ12 614-1009 I744A): as the sequence (Q8CJ12 614-1009 F859A) above, with I131A, A246F counted along it
T7 sequence (Q8CJ12 614-1009 I772A): as the sequence (Q8CJ12 614-1009 F859A) above, with I159A, A246F counted along it
T10 sequence (Q8CJ12 614-1009 F786A): as the sequence (Q8CJ12 614-1009 F859A) above, with F173A, A246F counted along it
T9 sequence (Q8CJ12 614-1009 F842A): as the sequence (Q8CJ12 614-1009 F859A) above, with F229A, A246F counted along it
T8 sequence (Q8CJ12 614-1009 W838A): as the sequence (Q8CJ12 614-1009 F859A) above, with W225A, A246F counted along it
T13 sequence (Q8CJ12 614-1009 V788A limits assumed): as the sequence (Q8CJ12 614-1009 F859A) above, with V175A, A246F counted along it

SMILES: CC[C@H](C)[C@H](NC(=O)CNC(=O)[C@H](Cc1ccc(C)cc1)NC(=O)[C@H](CO)NC(=O)[C@@H](N)C(C)C)C(=O)N[C@@H](CC(C)C)C(=O)N[C@@H](CC(C)C)C(=O)N[C@@H](CC(=O)O)C(=O)N[C@@H](CC(C)C)C(=O)N[C@@H](CO)C(=O)N[C@@H](CCCNC(=N)N)C(=O)N[C@H](C(=O)N[C@@H](CO)C(=O)N[C@@H](CC(C)C)C(=O)N1CCC[C@H]1C(=O)N[C@@H](CCCCNC(=S)Nc1ccc2c(c1)C(=O)OC21c2ccc(O)cc2Oc2cc(O)ccc21)C(=O)O)[C@@H](C)O [FITC-VPM-p15] (H-VS[Phe(4-Me)]GILLDLSRTSLPK(FITC)-OH; N-terminus and C-terminus assumed)
Fmut (Rluc-ADGRG2-ΔGPS-β F828A; [1]): 1.247 | Bmax (Rluc-ADGRG2-ΔGPS-β F828A; binding Bmax (BRET)): 0.706±0.006 | Fmut (Rluc-ADGRG2-ΔGPS-β F845A; [1]): 1.452 | Bmax (Rluc-ADGRG2-ΔGPS-β F845A; binding Bmax (BRET)): 0.749±0.071 | Fmut (Rluc-ADGRG2-ΔGPS-β I663A; [1]): 0.825 | Bmax (Rluc-ADGRG2-ΔGPS-β I663A; binding Bmax (BRET)): 0.814±0.043 | Fmut (Rluc-ADGRG2-ΔGPS-β V834A; [1]): 1.196 | Bmax (Rluc-ADGRG2-ΔGPS-β V834A; binding Bmax (BRET)): 0.789±0.016 | Fmut (Rluc-ADGRG2-ΔGPS-β F829A; [1]): 0.344 | Bmax (Rluc-ADGRG2-ΔGPS-β F829A; binding Bmax (BRET)): 0.817±0.050 | Fmut (Rluc-ADGRG2-ΔGPS-β F671A; [1]): 0.940 | Bmax (Rluc-ADGRG2-ΔGPS-β F671A; binding Bmax (BRET)): 0.833±0.050 | Binding to mutant (result in words across EC50 / Fmut / Bmax) (Rluc-ADGRG2-ΔGPS-β I758A): No binding | Binding to mutant (result in words across EC50 / Fmut / Bmax) (Rluc-ADGRG2-ΔGPS-β W824A): No binding | Binding to mutant (result in words across EC50 / Fmut / Bmax) (Rluc-ADGRG2-ΔGPS-β W757A): No binding

EC50 (ADGRG2-ΔGPS-β I758A): 13800 nM | EC50 (ADGRG2-ΔGPS-β W824A): 9750 nM | EC50 (ADGRG2-ΔGPS-β F828A): 3880 nM | EC50 (ADGRG2-ΔGPS-β F772A): 2180 nM | EC50 (ADGRG2-ΔGPS-β I730A): 1330 nM | EC50 (ADGRG2-ΔGPS-β S661A): 2320 nM | EC50 (ADGRG2-ΔGPS-β V774A): 1280 nM
SMILES: CC[C@H](C)[C@H](NC(=O)CNC(=O)[C@H](Cc1ccc(C)cc1)NC(=O)[C@H](CO)NC(=O)[C@@H](N)C(C)C)C(=O)N[C@@H](CC(C)C)C(=O)N[C@@H](CC(C)C)C(=O)N[C@@H](CC(=O)O)C(=O)N[C@@H](CC(C)C)C(=O)N[C@@H](CO)C(=O)N[C@@H](CCCNC(=N)N)C(=O)N[C@H](C(=O)N[C@@H](CO)C(=O)N[C@@H](CC(C)C)C(=O)N1CCC[C@H]1C(=O)O)[C@@H](C)O [VPM-p15] (H-VS[Phe(4-Me)]GILLDLSRTSLP-OH)
